Laboratory results as given in BindingDB's records for doi:10.1021/acs.jmedchem.8b01467 (Janssen Research & Development, 2018).

biological target: Cannabinoid receptor 2 (Homo sapiens, UniProt P34972); assay: Inverse agonist activity at human CB2 receptor expressed in HEK293 cells assessed as […] after 30 mins by HTRF assay
Sequence (P34972 whole entry): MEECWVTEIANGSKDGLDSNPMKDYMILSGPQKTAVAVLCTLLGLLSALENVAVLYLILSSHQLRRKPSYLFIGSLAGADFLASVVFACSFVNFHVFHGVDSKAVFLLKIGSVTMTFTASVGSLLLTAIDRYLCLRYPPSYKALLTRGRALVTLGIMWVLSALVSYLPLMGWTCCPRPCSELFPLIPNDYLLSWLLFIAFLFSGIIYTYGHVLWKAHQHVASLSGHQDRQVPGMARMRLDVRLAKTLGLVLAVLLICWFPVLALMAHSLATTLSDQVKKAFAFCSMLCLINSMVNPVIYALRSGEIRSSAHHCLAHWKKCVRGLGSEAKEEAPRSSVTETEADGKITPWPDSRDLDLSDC

| Structure (SMILES) | EC50 [µM] |
| --- | --- |
| O=c1cc(NC2CCN(S(=O)(=O)c3ccccc3)CC2)c2cc(C(c3ccc(Cl)cc3)c3ccc(Cl)cc3)ccc2[nH]1 [US9266835, 80] | > 10 |
| O=C(O)c1ccc(C(=O)N2CCC(Nc3cc(=O)[nH]c4ccc(C(c5ccc(Cl)cc5)c5ccc(Cl)cc5)cc34)CC2)cc1 [US9266835, 116] | > 10 |
| O=C(O)c1ccc(CN2CCC(Nc3cc(=O)[nH]c4ccc(C(c5ccc(Cl)cc5)c5ccc(Cl)cc5)cc34)CC2)cc1 [US9266835, 127] | > 10 |
| NCCCCOc1cc(C(c2ccc(Cl)cc2)c2ccc(Cl)cc2)cc2c(NC3CCN(S(=O)(=O)C(F)(F)F)CC3)ccnc12 [US9266835, 542] | > 10 |
| O=C(O)c1cccc(CN2CCC(Nc3cc(=O)[nH]c4ccc(C(c5ccc(Cl)cc5)c5ccc(Cl)cc5)cc34)CC2)c1 [US9266835, 129] | > 10 |

Next, values leading:

| EC50 [µM] | Structure (SMILES) |
| --- | --- |
| > 10 | COCCOc1cc(NC2CCN(S(=O)(=O)C(F)(F)F)CC2)c2cc(C(c3ccc(Cl)cc3)c3ccc(Cl)cc3)ccc2n1 [US9266835, 530] |
| > 10 | O=S(=O)(N1CCC(Nc2ccnc3c(O)cc(C(c4ccc(Cl)cc4)c4ccc(Cl)cc4)cc23)CC1)C(F)(F)F [US9266835, 541] |
| > 10 | Cn1c(=O)cc(NC2CCN(S(=O)(=O)C(F)(F)F)CC2)c2cc(C(c3ccc(Cl)cc3)c3ccc(Cl)cc3)ccc21 [US9266835, 49] |
